inhibition, Activity and IC50 data for ten compounds are collected here from ChEMBL document CHEMBL1127986, “Synthesis and Biological Evaluation of New Leukotriene Analogs” (Bioorg Med Chem Lett, 1994).

pIC50: −log10 of the molar value. Active and inactive are the calls of the source. The calls are words filed in the database; no cut-off is given here. Some results are limits rather than exact numbers.

The target of test [1] is T1, Polyunsaturated fatty acid 5-lipoxygenase (Homo sapiens) (UniProt P09917).
T1 sequence (whole entry): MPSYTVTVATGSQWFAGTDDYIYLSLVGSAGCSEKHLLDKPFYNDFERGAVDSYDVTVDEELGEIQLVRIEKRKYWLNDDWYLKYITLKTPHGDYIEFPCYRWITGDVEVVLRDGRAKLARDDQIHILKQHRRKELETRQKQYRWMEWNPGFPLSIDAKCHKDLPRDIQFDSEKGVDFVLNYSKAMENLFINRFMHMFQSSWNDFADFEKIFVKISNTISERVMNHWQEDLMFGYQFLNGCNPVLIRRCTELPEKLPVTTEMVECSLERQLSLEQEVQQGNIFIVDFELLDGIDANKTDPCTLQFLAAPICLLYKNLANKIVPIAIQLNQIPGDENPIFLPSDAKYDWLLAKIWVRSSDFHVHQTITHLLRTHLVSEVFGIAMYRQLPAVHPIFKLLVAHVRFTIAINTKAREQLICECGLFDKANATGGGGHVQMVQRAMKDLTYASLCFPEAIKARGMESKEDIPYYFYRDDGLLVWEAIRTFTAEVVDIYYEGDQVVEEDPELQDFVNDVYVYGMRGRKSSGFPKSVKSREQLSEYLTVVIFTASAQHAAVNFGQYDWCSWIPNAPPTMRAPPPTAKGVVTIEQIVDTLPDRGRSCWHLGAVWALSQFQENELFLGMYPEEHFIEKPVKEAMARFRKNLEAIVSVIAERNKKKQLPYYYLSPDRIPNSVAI
Description: Inhibition of 5-lipoxygenase was evaluated in human polymorphonuclear leukocytes stimulated by calcium ionophore A-23187 for formation of 5-HETE at 10 uM; NA means Inactive. Type of test: cell-based.

In test [2] the target is T2, Arachidonate 12-lipoxygenase (Rattus norvegicus) (UniProt Q02759).
T2 sequence (whole entry): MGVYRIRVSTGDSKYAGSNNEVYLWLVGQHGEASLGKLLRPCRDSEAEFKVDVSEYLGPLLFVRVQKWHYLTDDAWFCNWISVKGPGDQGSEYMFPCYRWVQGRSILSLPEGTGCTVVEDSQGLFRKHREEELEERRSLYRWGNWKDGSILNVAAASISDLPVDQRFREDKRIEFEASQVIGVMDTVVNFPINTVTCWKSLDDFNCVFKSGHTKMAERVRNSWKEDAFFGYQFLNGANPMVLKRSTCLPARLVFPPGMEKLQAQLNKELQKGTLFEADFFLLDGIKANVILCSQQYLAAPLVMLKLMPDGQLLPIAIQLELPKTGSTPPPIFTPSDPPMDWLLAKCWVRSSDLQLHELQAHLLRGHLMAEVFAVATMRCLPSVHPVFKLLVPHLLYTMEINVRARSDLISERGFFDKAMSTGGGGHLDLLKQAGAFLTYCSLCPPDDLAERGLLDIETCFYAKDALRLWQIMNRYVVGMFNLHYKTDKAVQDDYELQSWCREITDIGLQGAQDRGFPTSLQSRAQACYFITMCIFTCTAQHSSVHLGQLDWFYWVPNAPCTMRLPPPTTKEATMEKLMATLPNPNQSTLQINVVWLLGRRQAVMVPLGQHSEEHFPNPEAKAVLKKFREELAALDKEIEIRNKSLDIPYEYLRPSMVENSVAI
Description: Inhibition of 12-lipoxygenase was evaluated in rat platelets stimulated by thrombin up to a concentration of 10 uM; NE means No effect.

The target in test [3] is T1, Polyunsaturated fatty acid 5-lipoxygenase (Homo sapiens). Description: Inhibition of 5-lipoxygenase was evaluated in human polymorphonuclear leukocytes stimulated by calcium ionophore A-23187 for formation of LTB4 at 10 uM; NA means Inactive. Type of test: cell-based.
Test [4] concerns the target Cyclooxygenase (Rattus norvegicus) (UniProt P35355+Q63921). Description: Inhibition of cyclooxygenase was evaluated in rat platelets stimulated by thrombin up to a concentration of 10 uM; NE means No effect.
Test [5] concerns the target T3, Polyunsaturated fatty acid 5-lipoxygenase (Homo sapiens, UniProt P09917).
T3 sequence (P09917 whole entry): T1 sequence (whole entry)
Description: Inhibition of 5-lipoxygenase was evaluated in human polymorphonuclear leukocytes stimulated by calcium ionophore A-23187 for formation of 5-HETE. The test is classed as cell-based.

Test [6] has as its target T3, Polyunsaturated fatty acid 5-lipoxygenase. Description: Inhibition of 5-lipoxygenase was evaluated in human polymorphonuclear leukocytes stimulated by calcium ionophore A-23187 for formation of LTB4. Type of test: cell-based.
For test [7], the target named is T1, Polyunsaturated fatty acid 5-lipoxygenase (Homo sapiens). Description: Inhibition of 5-lipoxygenase was evaluated in human polymorphonuclear leukocytes stimulated by calcium ionophore A-23187 for formation of 5-HETE at 10 uM. The test is classed as cell-based.
Test [8] shares this target. Description: Inhibition of 5-lipoxygenase was evaluated in human polymorphonuclear leukocytes stimulated by calcium ionophore A-23187 for formation of LTB4 at 10 uM. The test is classed as cell-based.
Test [9] deals with T3, Polyunsaturated fatty acid 5-lipoxygenase. Description: Inhibition of 5-lipoxygenase was evaluated in human polymorphonuclear leukocytes stimulated by calcium ionophore A-23187 for formation of 5-HETE; NA means Not active. Type of test: cell-based.
For test [10] the target is unchanged. Description: Inhibition of 5-lipoxygenase was evaluated in human polymorphonuclear leukocytes stimulated by calcium ionophore A-23187 for formation of LTB4; NA means Not active. The test is classed as cell-based.

The inhibition is the change of the read-out against control, counted positive when it falls. Broadly, the pIC50 is −log10 of the IC50, conventionally taken in molar units.

Regarding `CCCCC/C=C\Cc1ccc(/C=C/C(O)CCC/C=N\O)cc1` (centres undefined), the inhibition entry in test [1] and in [3] was “inactive” throughout. The result in test [2] and in test [4] was inactive.

On to `CCCCC/C=C\C\C=C/C=C/C=C/C(O)CCC/C=N/O` (racemic), for which the pIC50 in test [5] is 5.27; in test [6] it was 5.36. Moreover, the outcome in [2] and in [4] was inactive.

With `CCCCC/C=C\C\C=C/C=C/C=C/C(O)CCC/C=N/OC` (centres undefined), the inhibition in test [7] and in [8] was 95% in each case. Also, the outcome in test [2] and in test [4] was inactive.

For `CCCCC/C=C\C/C=C\C=C\C(O)CCC/C=N/O` (centres undefined), the inhibition in test [7] is less than 40%; in test [8], 60%.

Turning to `CCCCC/C=C\C\C=C/C=C/C=C/C(O)CCCCC` (centres undefined), the inhibition in [7] and in test [8] was 95% each time.

As for `CCCCC/C=C\C\C=C/C=C/C=C/[C@H](O)CCC/C=N/O`, the pIC50 in test [5] is 5.55; in [6], 5.48. Besides, the result in test [2] and in test [4] was inactive.

As for `CCCCC/C=C\C\C=C/C=C/C=C/C(O)CC/C=N\O` (centres undefined), the inhibition in [7] and in test [8] was 95% each time. The result in test [2] and in test [4] was inactive.

Take `CCCCCCCC\C=C/C=C/C=C/C(O)CCC/C=N/O` (centres undefined): the IC50 entry in [9] and in [10] was “Not Active” throughout.

Take `CCCCC/C=C\C\C=C/C=C/C=C/C(CCC/C=N/O)OC` (centres undefined): the IC50 result in test [9] and in test [10] was “Not Active” each time. The outcome in test [2] and in test [4] was inactive.

As for `CCCCC/C=C\C\C=C/C=C/C=C/[C@@H](O)CCC/C=N/O`, the IC50 entry in test [9] and in test [10] was “Not Active” in each case. Moreover, the outcome in test [2] and in test [4] was inactive.
